The source of these data is patent publication US9738932B2, “Biomarkers for cardiovascular side-effects induced by cox-2 inhibitory compounds” (FIRALIS SAS, priority 2005, dated 2017).

The structures appear in SMILES notation. “Also recorded” adds a separate entry of the source.

Series [1] relates to INFγ inducible proteins in serum and plasma. As to the kind of experiment: Rules-Based Medicine (RBM) human MAP multiplex protein profiling in serum and plasma. It counts as in vivo, cynomolgus monkey (Macaca fascicularis). Conditions: monkey #A60055. The source says:
To obtain biomarkers predicting cardiovascular adverse effect of tested compounds/drugs, expression levels of proteins have been analysed in cynomolgus monkey serum and plasma from the present analysis using human Multi-Analyte Profile (MAP) Technology. Human MAP could be used to measure protein levels of more than 80 antigens in monkey serum and plasma (Rules-Based Medicine Inc (RBM®), Austin, Tex. USA).
Soluble proteins present in serum and plasma of the same monkeys have been measured using a multiplex assay produced by Rules-Based Medicine (RBM®) of Texas.

Another series deals with veins (vascular tissue). As to the kind of experiment: Histopathological evaluation of tissues of treated monkeys. It counts as in vivo, cynomolgus monkey (Macaca fascicularis). The note with it: animal A60055, 50 mg/kg/day oral gavage, two weeks. The source says:
Administration of compounds.
Gene expression profiles.

For the compound `CS(=O)(=O)c1ccc(C2=C(c3ccccc3)C(=O)OC2)cc1` [Vioxx®, rofecoxib], the “level of INFγ inducible proteins in serum and plasma (multiplex assay)” value in series [1] is recorded as “increased level”. Further, the histopathological vascular findings entry with veins (vascular tissue) is “focal vascular necrosis in the veins; also recorded: clear sign of vasculitis in veins”.
